Data: US11590139B2, “Substituted aminopurine compounds, compositions thereof, and methods of treatment therewith” (Signal Pharmaceuticals, LLC, priority 2014, dated 2023)

Test system: Lox-IMVI melanoma cell line
Assay: Lox-IMVI anti-proliferative assay (growth inhibition, Cell Titer-Glo)
Type: cell-based, human
Details: Homo sapiens; IC50 activity level in the cell-based Lox-IMVI anti-proliferative assay; read-out: Activity
Method in brief: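 RPMI/10% FBS; cmpd 0.5 nM–10 μM, 3-fold ×10, duplicate, 0.2% DMSO final; 72 h, 37 °C, 5% CO2. ATP-luminescence readout at t0 and 72 h. IC50 = 50% of DMSO control, 4-parameter logistic fit.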

| IC50 | SMILES |
| --- | --- |
| 500 to 1000 nM | NC(=O)[C@H]1CC[C@@H](n2c(Nc3c(F)cc(Cl)cc3Cl)nc3cnc(N[C@H]4CCC[C@@H]4O)nc32)CC1 [Example 271, (1R,4s)-4-(8-(2,4-dichloro-6-fluorophenylamino)-2-((1S,2S)-2-hydroxycyclopentylamino)-9H-purin-9-yl)cyclohexanecarboxamide] |
| > 1000 nM | NC(=O)[C@H]1CC[C@@H](n2c(Nc3c(Cl)cc(F)cc3Cl)nc3cnc(N[C@H]4CCC[C@@H]4O)nc32)CC1 [Example 272, (1R,4s)-4-(8-(2,6-dichloro-4-fluorophenylamino)-2-((1S,2S)-2-hydroxycyclopentylamino)-9H-purin-9-yl)cyclohexanecarboxamide] |
| > 1000 nM | NC(=O)[C@H]1CC[C@@H](n2c(Nc3c(F)ccc(Cl)c3F)nc3cnc(N[C@H]4CCC[C@@H]4O)nc32)CC1 [Example 273, (1R,4s)-4-(8-(3-chloro-2,6-difluorophenylamino)-2-((1S,2S)-2-hydroxycyclopentylamino)-9H-purin-9-yl)cyclohexanecarboxamide] |
| < 250 nM | NC(=O)[C@H]1CC[C@@H](n2c(Nc3c(Cl)cc(Cl)cc3Cl)nc3cnc(N[C@@H]4CCOC[C@H]4F)nc32)CC1 [Example 274, (1S,4s)-4-(2-((3S,4R)-3-fluorotetrahydro-2H-pyran-4-ylamino)-8-(2,4,6-trichlorophenylamino)-9H-purin-9-yl)cyclohexanecarboxamide] |
| 250 to 500 nM | NC(=O)[C@H]1CC[C@@H](n2c(Nc3c(F)cccc3F)nc3cnc(N[C@@H]4CCOC[C@H]4F)nc32)CC1 [Example 275, (1S,4s)-4-(8-(2,6-difluorophenylamino)-2-((3S,4R)-3-fluorotetrahydro-2H-pyran-4-ylamino)-9H-purin-9-yl)cyclohexanecarboxamide] |
| < 250 nM | NC(=O)[C@H]1CC[C@@H](n2c(Nc3c(F)cc(F)cc3F)nc3cnc(N[C@@H]4CCOC[C@H]4F)nc32)CC1 [Example 276, (1S,4s)-4-(2-((3S,4R)-3-fluorotetrahydro-2H-pyran-4-ylamino)-8-(2,4,6-trifluorophenylamino)-9H-purin-9-yl)cyclohexanecarboxamide] |
| > 1000 nM | NC(=O)[C@H]1CC[C@@H](n2c(Nc3c(F)cc(F)cc3F)nc3cnc(N[C@H]4CCOC[C@@H]4F)nc32)CC1 [Example 277, (1R,4s)-4-(2-((3R,4S)-3-fluorotetrahydro-2H-pyran-4-ylamino)-8-(2,4,6-trifluorophenylamino)-9H-purin-9-yl)cyclohexanecarboxamide] |
| < 250 nM | N#Cc1cc(Cl)c(Nc2nc3cnc(NC4CCOCC4)nc3n2[C@H]2CC[C@@H](C(N)=O)CC2)c(Cl)c1 [Example 278, (1s,4s)-4-(8-(2,6-dichloro-4-cyanophenylamino)-2-(tetrahydro-2H-pyran-4-ylamino)-9H-purin-9-yl)cyclohexanecarboxamide] |
| > 1000 nM | NC(=O)[C@H]1CC[C@@H](n2c(Nc3c(F)cc(F)cc3F)nc3cnc(N[C@H]4C[C@H](O)C4)nc32)CC1 [Example 279, (1s,4s)-4-(2-((1r,3r)-3-hydroxycyclobutylamino)-8-(2,4,6-trifluorophenylamino)-9H-purin-9-yl)cyclohexanecarboxamide] |
| > 1000 nM | NC(=O)[C@H]1CC[C@@H](n2c(Nc3c(Cl)cccc3Cl)nc3cnc(N[C@H]4C[C@H](O)C4)nc32)CC1 [Example 280, (1s,4s)-4-(8-(2,6-dichlorophenylamino)-2-((1r,3r)-3-hydroxycyclobutylamino)-9H-purin-9-yl)cyclohexanecarboxamide] |
| > 1000 nM | NC(=O)[C@H]1CC[C@@H](n2c(Nc3c(F)cccc3Cl)nc3cnc(N[C@H]4C[C@H](O)C4)nc32)CC1 [Example 281, (1s,4s)-4-(8-(2-chloro-6-fluorophenylamino)-2-((1R,3r)-3-hydroxycyclobutylamino)-9H-purin-9-yl)cyclohexanecarboxamide] |
| > 1000 nM | NC(=O)[C@H]1CC[C@@H](n2c(Nc3c(F)cc(F)cc3Cl)nc3cnc(N[C@H]4C[C@H](O)C4)nc32)CC1 [Example 282, (1s,4s)-4-(8-(2-chloro-4,6-difluorophenylamino)-2-((1R,3r)-3-hydroxycyclobutylamino)-9H-purin-9-yl)cyclohexanecarboxamide] |
| > 1000 nM | NC(=O)[C@H]1CC[C@@H](n2c(Nc3c(F)cc(Cl)cc3F)nc3cnc(N[C@H]4C[C@H](O)C4)nc32)CC1 [Example 283, (1s,4s)-4-(8-(4-chloro-2,6-difluorophenylamino)-2-((1r,3r)-3-hydroxycyclobutylamino)-9H-purin-9-yl)cyclohexanecarboxamide] |
| > 1000 nM | NC(=O)[C@H]1CC[C@@H](n2c(Nc3c(Cl)cc(F)cc3Cl)nc3cnc(N[C@H]4C[C@H](O)C4)nc32)CC1 [Example 284, (1s,4s)-4-(8-(2,6-dichloro-4-fluorophenylamino)-2-((1r,3r)-3-hydroxycyclobutylamino)-9H-purin-9-yl)cyclohexanecarboxamide] |
| > 1000 nM | NC(=O)[C@H]1CC[C@@H](n2c(Nc3ccc(Cl)c(F)c3F)nc3cnc(N[C@H]4C[C@H](O)C4)nc32)CC1 [Example 285, (1s,4s)-4-(8-(4-chloro-2,3-difluorophenylamino)-2-((1R,3r)-3-hydroxycyclobutylamino)-9H-purin-9-yl)cyclohexanecarboxamide] |
| > 1000 nM | NC(=O)[C@H]1CC[C@@H](n2c(Nc3c(F)ccc(Cl)c3F)nc3cnc(N[C@H]4C[C@H](O)C4)nc32)CC1 [Example 286, (1s,4s)-4-(8-(3-chloro-2,6-difluorophenylamino)-2-((1r,3r)-3-hydroxycyclobutylamino)-9H-purin-9-yl)cyclohexanecarboxamide] |
| > 1000 nM | NC(=O)[C@H]1CC[C@@H](n2c(Nc3cc(F)cc(Cl)c3F)nc3cnc(N[C@H]4C[C@H](O)C4)nc32)CC1 [Example 287, (1s,4s)-4-(8-(3-chloro-2,5-difluorophenylamino)-2-((1R,3r)-3-hydroxycyclobutylamino)-9H-purin-9-yl)cyclohexanecarboxamide] |
| 250 to 500 nM | NC(=O)[C@H]1CC[C@@H](n2c(Nc3c(F)cc(F)cc3F)nc3cnc(NC4CCC(F)(F)CC4)nc32)CC1 [Example 288, (1s,4s)-4-(2-(4,4-difluorocyclohexylamino)-8-(2,4,6-trifluorophenylamino)-9H-purin-9-yl)cyclohexanecarboxamide] |
| > 1000 nM | NC(=O)[C@H]1CC[C@@H](n2c(Nc3c(F)cccc3F)nc3cnc(NC4CCC(F)(F)CC4)nc32)CC1 [Example 289, (1s,4s)-4-(2-(4,4-difluorocyclohexylamino)-8-(2,6-difluorophenylamino)-9H-purin-9-yl)cyclohexanecarboxamide] |
| 500 to 1000 nM | NC(=O)[C@H]1CC[C@@H](n2c(Nc3ccc(Cl)c(F)c3F)nc3cnc(NC4CCC(F)(F)CC4)nc32)CC1 [Example 290, (1s,4s)-4-(8-(4-chloro-2,3-difluorophenylamino)-2-(4,4-difluorocyclohexylamino)-9H-purin-9-yl)cyclohexanecarboxamide] |
| 500 to 1000 nM | NC(=O)[C@H]1CC[C@@H](n2c(Nc3c(F)ccc(Cl)c3F)nc3cnc(NC4CCC(F)(F)CC4)nc32)CC1 [Example 291, (1s,4s)-4-(8-(3-chloro-2,6-difluorophenylamino)-2-(4,4-difluorocyclohexylamino)-9H-purin-9-yl)cyclohexanecarboxamide] |
